Laboratory results reported in patent publication US20210317165A1, “ZP3 FRAGMENTS IN IMMUNOTHERAPY OF OVARIAN CANCER” (LABORATOIRE HRA-PHARMA, priority 2018, published 2021).

System: ZP3-specific TCD8
Assay: ELISPOT IFNγ of spleen TCD8 stimulated ex vivo with APC pulsed with each peptide separately
Format: in vivo, HLA-A2/DR1 transgenic mice
Settings: mice immunized with pool A+B, restimulation with each peptide separately
Description: HLA-A2/DR1 transgenic mice received three subcutaneous administrations of peptides pool and GM-CSF/CpG adjuvant as follow:
A first group (group 1) of mice received 100 μg/mice of a pool of peptides A+B (SEQ ID NO: 1, 2, 4, 5, 6, 10, 12, 13, 15 and 17) and GM-CSF adjuvant at Day 0 (D0). At D1, CpG wad injected. 100 μg/mice of pool of peptides A+B was injected at D14 and D30. Mice were sacrificed and analyzed at D40.
The ZP3-specific TCD8 response was measured by ex vivo stimulation of TCD8 from spleen of mice with APC pulsed with peptides (each peptides separately). The number of activated TCD8 cells was measured by ELISPOT IFNγ.

FTVDVFHFA (Peptide of human ZP3) [Peptide 5, hZP3 fragment, position 263]
ZP3-specific TCD8 response (FIG. 2, listed as SEQ ID NO: 5): strong specific TCD8 response (statistically significant)

LRLMEENWNA (Peptide of human ZP3) [Peptide 6, hZP3 fragment, position 174]
ZP3-specific TCD8 response (FIG. 2, listed as SEQ ID NO: 6): strong specific TCD8 response (statistically significant)

NMIYITCHL (Peptide of human ZP3) [Peptide 13, hZP3 fragment, position 276]
ZP3-specific TCD8 response (FIG. 2, listed as SEQ ID NO: 13): strong specific TCD8 response (statistically significant)
